# Data taken from patent publication US20120010178A1, “METHODS AND COMPOUNDS FOR TREATMENT OF NEURODEGENERATIVE DISORDERS” (PRESIDENT AND FELLOWS OF HARVARD COLLEGE, priority 2008, published 2012).
# “Also recorded” adds a separate entry of the source.
# Legend:
# [1] = test system: SMN; assay: SMN immunofluorescence quantification (cytoplasm, nucleus, GEMs) in fibroblasts from SMA patients; assay type: cell-based, human; settings: SMA patient fibroblasts
# In short: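 SMN immunostained and imaged by automated confocal microscopy; per-cell cytoplasmic and nuclear SMN intensity and GEM number and intensity quantified. PFA fixation used for screening.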
# [2] = test system: SMN1 and SMN2 transcripts; assay: qRT-PCR of SMN1 and SMN2 transcripts after PDGF-BB; assay type: cell-based, human; settings: 50 ng/ml, over three days
# Protocol: Although there is much more known about growth factor specificity and downstream pathways that they activate, whether PDGF effect on SMN was mediated through the binding to the PDGFR was tested next. The SMN-increasing effects of PDGF were blocked by DMPQ and […], two small molecules inhibitors of the PDGF receptor (FIG. 21a). In addition PDGF neutralizing antibody titration were performed in the cells incubated with 20 ng/ml platelet-derived PDGF. Depending on the antibody concentration, gradient of SMN level decrease reaching 40% was observed (FIG. 21b). Moreover, as might be predicted, since there are appreciable levels of PDGF in the media serum in which the fibroblasts are normally maintained, simply adding PDGFR inhibitors DMPQ and AG-1296 to the media decreases the “basal” level of SMN in these cells down to 15-20%, (FIG. 22). […]
# […] was purified using Tri-Reagent (Sigma-Aldrich) protocol and quantified on the Nanodrop (Thermo Fisher Scientific). […] Synthesised cDNA was diluted 5 times and 1 μl of cDNA sample was PCR amplified using RT^2SYBR Green/ROX PCR Master Mix and primer assays for SMN1, SMN2, GAPDH (SABiosciences) genes on 7900HT Fast Real-Time PCR System (ABI). qPCR results were analyzed with RQ Manager Software (ABI) by […] quantification method.
substance,measurement,setting,value
PDGF-BB: human recombinant PDGF-BB,levels of cytoplasmic and nuclear SMN (in words),[1]; substance alone,strongest activator of SMN; also recorded: most potent growth factor that elevated SMN protein levels
same,Avg. SMN fold increase,[1]; human PDGF isoforms,2-2.3 fold
same,level of SMN1 and SMN2 transcripts,[2],little or no increase in SMN transcripts
